Key:
[1] = target: Induced myeloid leukemia cell differentiation protein Mcl-1 (Homo sapiens, UniProt Q07820); assay: Inhibition of FITC-labeled Bak BH3 peptide binding to GST-tagged MCL1 (171 to 327 residues) (unknown origin) expressed in Escherichia coli BL21 (DE3) incubated for 30 mins fluorescence polarization-based competitive binding assay
Bcl-2-like protein 1 = Bcl-2-like protein 1 (Homo sapiens, UniProt Q07817); assay: Inhibition of BCL-XL(unknown origin) at 10 uM incubated for 120 mins by TR-FRET assay relative to control
Sequence of Bcl-2-like protein 1 (Q07817 whole entry): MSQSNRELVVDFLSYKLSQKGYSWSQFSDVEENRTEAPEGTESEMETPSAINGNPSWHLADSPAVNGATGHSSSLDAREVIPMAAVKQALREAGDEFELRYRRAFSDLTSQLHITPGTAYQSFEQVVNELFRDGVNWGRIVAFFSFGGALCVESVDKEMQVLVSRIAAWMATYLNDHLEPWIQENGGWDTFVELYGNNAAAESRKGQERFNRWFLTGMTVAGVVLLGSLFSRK

NCI-H23 = assay: Antiproliferative activity against human NCI-H23 cells assessed as decrease in cell viability measured after 72 hrs by MTT assay; assay type: functional, cell-based; conditions: NCI-H23, 72 h
K562 = assay: Antiproliferative activity against human K562 cells assessed as decrease in cell viability measured after 72 hrs by MTT assay; assay type: functional, cell-based; conditions: K562, 72 h
SK-BR-3 = assay: Antiproliferative activity against human SK-BR-3 cells assessed as decrease in cell viability measured after 72 hrs by MTT assay; assay type: functional, cell-based; conditions: SK-BR-3, 72 h
MV4-11 = assay: Antiproliferative activity against human MV4-11 cells assessed as decrease in cell viability measured after 72 hrs by MTT assay; assay type: functional, cell-based; conditions: MV4-11, 72 h
[2] = target: Apoptosis regulator Bcl-2 (Homo sapiens, UniProt P10415); assay: Inhibition of FITC-labeled Bak BH3 peptide binding to GST-tagged BCL2 (1 to 205 residues) (unknown origin) expressed in Escherichia coli BL21 (DE3) at 10 uM incubated for 30 mins fluorescence polarization-based competitive binding assay relative to control
Sequence of Apoptosis regulator Bcl-2 (P10415 whole entry, the tested form may be a part): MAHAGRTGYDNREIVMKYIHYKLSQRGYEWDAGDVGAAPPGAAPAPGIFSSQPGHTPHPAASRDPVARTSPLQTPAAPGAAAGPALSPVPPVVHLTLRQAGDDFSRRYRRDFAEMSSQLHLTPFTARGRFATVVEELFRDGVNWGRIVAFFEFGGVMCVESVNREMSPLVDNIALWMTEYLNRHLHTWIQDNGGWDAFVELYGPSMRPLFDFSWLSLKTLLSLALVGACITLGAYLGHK

NCI-H929 = assay: Antiproliferative activity against human NCI-H929 cells assessed as decrease in cell viability measured after 72 hrs by MTT assay; assay type: functional, cell-based; conditions: NCI-H929, 72 h

Sequence of Induced myeloid leukemia cell differentiation protein Mcl-1 (Q07820 whole entry, the tested form may be a part): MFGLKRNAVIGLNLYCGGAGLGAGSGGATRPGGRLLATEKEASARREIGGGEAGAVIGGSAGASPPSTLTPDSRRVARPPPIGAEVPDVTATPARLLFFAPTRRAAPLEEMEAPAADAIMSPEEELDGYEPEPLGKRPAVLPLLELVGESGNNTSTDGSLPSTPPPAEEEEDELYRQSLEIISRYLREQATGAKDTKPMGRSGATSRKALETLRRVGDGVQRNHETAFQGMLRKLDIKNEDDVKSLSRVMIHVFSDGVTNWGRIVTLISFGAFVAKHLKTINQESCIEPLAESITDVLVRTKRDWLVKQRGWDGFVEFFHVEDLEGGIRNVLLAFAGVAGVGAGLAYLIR

| Structure (SMILES) | Ki [1] | other results |
| --- | --- | --- |
| CCc1c(S(=O)(=O)c2ccc(C)cc2)c(C)n(CCCOc2cc(C)c(Cl)c(C)c2)c1C(=O)O | 0.12 µM |  |
| Cc1ccc(C(=O)c2cc(C(=O)O)n(CCCOc3cc(C)c(Cl)c(C)c3)c2)cc1 | 0.7 µM |  |
| Cc1cc(OCCCn2c(C)c(S(=O)(=O)c3c(C)cccc3C)c(C)c2C(=O)O)cc(C)c1Cl | > 10 µM |  |
| CCc1c(S(=O)(=O)c2ccc(C)cc2)c(CC)n(CCCOc2cc(C)c(Cl)c(C)c2)c1C(=O)O | 1.93 µM |  |
| CC(=O)c1ccccc1S(=O)(=O)c1c(C)c(C(=O)O)n(CCCOc2cc(C)c(Cl)c(C)c2)c1C | 0.5 µM |  |
| Cc1ccc(S(=O)(=O)c2cn(CCCOc3cc(C)c(Cl)c(C)c3)c(C(=O)O)c2C)cc1 | 0.81 µM |  |
| Cc1ccc(S(=O)(=O)Nc2cc(C(=O)O)n(CCCOc3cc(C)c(Cl)c(C)c3)c2)cc1 | > 10 µM |  |
| Cc1cc(OCCCn2c(C)c(S(=O)(=O)C3CCCC3)c(C)c2C(=O)O)cc(C)c1Cl | > 10 µM |  |
| Cc1ccc(Sc2c(C)c(C(=O)O)n(CCCOc3cc(C)c(Cl)c(C)c3)c2C)cc1 | 0.68 µM |  |
| Cc1cc(OCCCn2c(C)c(S(=O)(=O)c3cccs3)c(C)c2C(=O)O)cc(C)c1Cl | 0.08 µM | inhibition (Bcl-2-like protein 1): 37%; IC50 (NCI-H23): 3.1 µM; IC50 (K562): 11.3 µM; IC50 (SK-BR-3): 5.13 µM; IC50 (MV4-11): 2.3 µM; inhibition [2]: 7.54%; IC50 (NCI-H929): 0.7 µM |
| Cc1ccc(S(=O)(=O)c2c(C)c(C(=O)O)n(CCCOc3cc(C)c(Cl)c(C)c3)c2CC(C)C)cc1 | 1.6 µM |  |
| Cc1ccc(S(=O)(=O)c2c(CC(C)C)c(C(=O)O)n(CCCOc3cc(C)c(Cl)c(C)c3)c2C)cc1 | 0.24 µM |  |
| Cc1cc(OCCCn2c(C)c(S(=O)(=O)c3ccc(C(=O)O)cc3)c(C)c2C(=O)O)cc(C)c1Cl | 0.42 µM |  |
| Cc1ccc(S(=O)(=O)c2cc(C(=O)O)n(CCCOc3cc(C)c(Cl)c(C)c3)c2)cc1 | 0.47 µM |  |
| Cc1ccc(CNc2cc(C(=O)O)n(CCCOc3cc(C)c(Cl)c(C)c3)c2)cc1 | > 10 µM |  |
| CCOc1ccc(S(=O)(=O)c2c(C)c(C(=O)O)n(CCCOc3cc(C)c(Cl)c(C)c3)c2C)cc1 | 0.14 µM |  |

Second part, led by results:

| Ki [1] | Structure (SMILES) | other results |
| --- | --- | --- |
| 0.15 µM | Cc1cc(OCCCn2c(C)c(S(=O)(=O)c3ccccc3O)c(C)c2C(=O)O)cc(C)c1Cl |  |
| 0.06 µM | Cc1cc(OCCCn2c(C)c(S(=O)(=O)c3cccc(Br)c3)c(C)c2C(=O)O)cc(C)c1Cl |  |
| 0.19 µM | Cc1cc(OCCCn2c(C)c(S(=O)(=O)c3ccccc3)c(C)c2C(=O)O)cc(C)c1Cl |  |
| 0.9 µM | Cc1cc(OCCCn2c(C)c(S(=O)(=O)c3ccncc3)c(C)c2C(=O)O)cc(C)c1Cl |  |
| 0.26 µM | Cc1cc(OCCCn2c(C)c(S(=O)(=O)c3ccc(F)cc3)c(C)c2C(=O)O)cc(C)c1Cl |  |
| 0.17 µM | Cc1ccc(S(=O)(=O)c2c(C)c(C(=O)O)n(CCCOc3cc(C)c(Cl)c(C)c3)c2C)cc1 |  |
| 0.15 µM | Cc1cc(OCCCn2c(C)c(S(=O)(=O)c3cccc(O)c3)c(C)c2C(=O)O)cc(C)c1Cl |  |
| 0.18 µM | Cc1cc(OCCCn2c(C)c(S(=O)(=O)c3ccc(Cl)cc3)c(C)c2C(=O)O)cc(C)c1Cl |  |

Source: ChEMBL document CHEMBL4834480, “Discovery of 3,5-Dimethyl-4-Sulfonyl-1H-Pyrrole-Based Myeloid Cell Leukemia 1 Inhibitors with High Affinity, Selectivity, and Oral Bioavailability” (J Med Chem, 2021)
